Data from patent publication US20240335462A1, “SULFUR/PHOSPHORUS-CONTAINING ARYL COMPOUND AND APPLICATION THEREOF” (MEDSHINE DISCOVERY INC., priority 2021, published 2024).

Key:
[1] = Pharmacokinetic testing in mice; assay type: in vivo, male CD-1 mice; conditions: mouse; for C0: read-out: Starting concentration C0; for Cmax: read-out: Peak concentration Cmax; for Vd: read-out: Apparent volume of distribution Vd; for AUC(0-t): read-out: Area under the curve AUC0-last; for half-life: read-out: Half-life T1/2 (converted); for bioavailability: read-out: Bioavailability F %; for Tmax: read-out: Time to peak concentration Tmax
Protocol: (§1) The objective was to study the pharmacokinetic behavior of the compound of the present disclosure in mice and evaluate the pharmacokinetic characteristics, using male CD-1 mice aged 7 to 9 weeks as test animals. The drug concentrations in plasma at different time points after a single intravenous injection (IV) and oral administration (PO) of the compound were determined using LC/MS/MS.
(§2) The pharmacokinetic characteristics of the compound in rodents following intravenous injection and oral administration were tested using a standard protocol. Test animals were fasted for 10 to 14 hours before administration and allowed to feed 4 hours post-administration. The compound was prepared into a clear solution with the appropriate solvent for both IV (intravenous injection) and PO (oral gavage) administration. The solvent was 10% DMSO+10% solutol+80% (10% HP-β-CD aqueous solution). Whole blood samples were collected within 24 hours, centrifuged at 6000 g for 3 minutes, and the supernatant was separated to obtain plasma samples. Protein precipitation was performed by adding four times the volume of acetonitrile solution containing internal standard to the plasma samples. After centrifugation, the supernatant was added with an equal volume of water and then centrifuged before being subjected to LC-MS/MS analysis for quantifying plasma drug concentration. Pharmacokinetic parameters such as peak concentration, time to peak concentration, clearance, half-life, area under the drug-time curve, and bioavailability were calculated.

[2] = tested on: JAK1/3 signaling pathway (IL-2/pSTAT5); assay: IL-2-induced STAT phosphorylation in human whole blood; assay type: cell-based
Protocol: The purpose of this experiment was to detect the inhibitory effect of the compound on the JAK-STAT signaling pathway activated by cytokines in human whole blood or platelet-rich plasma. Fresh human whole blood/platelets were placed in a 96-well plate. The test compound was added and incubated for 1 hour, followed by stimulation with various cytokines. The corresponding STAT phosphorylation levels in different cell populations were analyzed using flow cytometer by means of surface antibody staining and intracellular phosphorylated antibody staining. The experiments using the cytokines IFN-α, […] as stimulants were conducted in human whole blood, whereas the experiment using the cytokine TPO as a stimulant was conducted in platelet-rich plasma.
• a) Fresh blood from volunteers was collected using EDTA anticoagulant tubes. • b) 90 μL per well of whole blood was rapidly seeded into a 96-well plate and incubated in a cell culture incubator for 15 minutes. […] The plate was centrifuged at 500×g for 8 minutes, and the supernatant was discarded. • g) The cell pellet was washed once with pre-cooled PBS. • h) After discarding the supernatant, anti-human CD3 antibody was added thereto, followed by incubation at room temperature for 40 minutes. • i) The plate was centrifuged at 500×g for 8 minutes, then the supernatant was discarded, and the cells were washed twice with 200 μL of pre-cooled PBS. • j) The cells were resuspended in 200 μL of pre-cooled Perm Buffer III per well and permeabilized on ice for 60 minutes. • k) The plate was centrifuged at 600×g for 8 minutes, then the supernatant was discarded, and the cells were washed twice with pre-cooled PBS. • l) Intracellular staining with anti-pSTAT5 antibody was carried out, followed by incubation at room temperature for 60 minutes. • m) The cells were centrifuged at 600×g for 8 minutes, washed twice with PBS, resuspended in 200 μL of PBS, and detected using the CytoFlex S flow cytometer. • n) Data analysis was conducted using FlowJo and GraphPad Prism 8 software.
Data were analyzed using FlowJo software. […]

[3] = Pharmacokinetic testing in rats; assay type: in vivo, male SD rats; conditions: rat; for AUC(0-t): read-out: Area under the curve AUC0-last; for C0: read-out: Starting concentration C0; for Cmax: read-out: Peak concentration Cmax
Protocol: as §1, with “rats” for “mice”, “SD rats” for “CD-1 mice”, “(P0)” for “(PO)”
as §2, with “was […]” for “was 10%”

[4] = male, CD-1, plasma, PO 10 mg/kg

Compound	Apparent clearance Cl ([1]; IV 3 mg/kg) [mL/min/kg]	Apparent volume of distribution Vd ([1]; IV 3 mg/kg) [L/kg]	Area under the curve AUC0-last ([1]; IV 3 mg/kg) [µM·h]	Half-life T1/2 ([1]; IV 3 mg/kg) [min]	C0 ([1]; IV 3 mg/kg) [µM]	Area under the curve AUC0-last ([1]; PO 10 mg/kg) [µM·h]	Bioavailability F % ([1]; PO 10 mg/kg) [%]	Time to peak concentration Tmax ([1]; PO 10 mg/kg) [min]	Cmax ([1]; PO 10 mg/kg) [µM]	Vd ([1]; male, CD-1, plasma, IV 3 mg/kg) [L/kg]	AUC(0-t) ([1]; male, CD-1, plasma, IV 3 mg/kg) [µM·h]	half-life ([1]; male, CD-1, plasma, IV 3 mg/kg) [min]	C0 ([1]; male, CD-1, plasma, IV 3 mg/kg) [µM]	AUC(0-t) [1, 4] [µM·h]	bioavailability [1, 4] [%]	Cmax [1, 4] [µM]	Tmax [1, 4] [min]	IC50 [2] [µM]	other results
CNC(=O)c1cnc(NC(=O)C2CC2)cc1Nc1cccc(-c2ccc(S(=O)(=O)C(C)C)cn2)c1OC.Cl [Hydrochloride of WX-020]	7.0	1.1	14.13	138	8.04	56.784	121	30	15.5	–	–	–	–	–	–	–	–	–	–
CNC(=O)c1cnc(NC(=O)C2CC2)cc1Nc1cccc(-c2ncc(S(=O)(=O)C(C)C)cn2)c1OC [WX-019]	4.7	–	–	–	–	–	–	–	–	0.4	21	66	16.3	61.2	87	17.3	48	33.8	–
CNC(=O)c1cnc(NC(=O)C2CC2)cc1Nc1cccc(-c2ccc(S(=O)(=O)C(C)C)cn2)c1OC [WX-020]	–	–	–	–	–	–	–	–	–	–	–	–	–	–	–	–	–	> 100	Vd ([3]; male, SD, plasma, IV 3 mg/kg, read-out: Apparent volume of distribution Vd): 0.9 L/kg; AUC(0-t) ([3]; male, SD, plasma, IV 3 mg/kg): 2.61 µM·h; half-life ([3]; male, SD, plasma, IV 3 mg/kg, read-out: Half-life T1/2 (converted)): 54 min; C0 ([3]; male, SD, plasma, IV 3 mg/kg): 3.03 µM; AUC(0-t) ([3]; male, SD, plasma, PO 10 mg/kg): 9.76 µM·h; bioavailability ([3]; male, SD, plasma, PO 10 mg/kg, read-out: Bioavailability F%): 39%; Cmax ([3]; male, SD, plasma, PO 10 mg/kg): 3.38 µM; Tmax ([3]; male, SD, plasma, PO 10 mg/kg, read-out: Time to peak concentration Tmax): 48 min; Apparent clearance Cl ([3]; IV 3 mg/kg): 13.1 mL/min/kg
CNC(=O)c1nnc(NC(=O)C2CC2)cc1Nc1cccc(-c2ncc(S(=N)(=O)C(C)C)cn2)c1OC.Cl (single isomer, unassigned) [Hydrochloride of WX-011A]	–	–	–	–	–	–	–	–	–	–	–	–	–	–	–	–	–	–	Apparent clearance Cl ([3]; IV 1 mg/kg): 16.8 mL/min/kg; Apparent volume of distribution Vd ([3]; IV 1 mg/kg): 0.5 L/kg; Area under the curve AUC0-last ([3]; IV 1 mg/kg): 2.075 µM·h; Half-life T1/2 ([3]; IV 1 mg/kg): 36 min; C0 ([3]; IV 1 mg/kg): 4.54 µM; Area under the curve AUC0-last ([3]; PO 10 mg/kg): 8.202 µM·h; Bioavailability F % ([3]; PO 10 mg/kg): 41%; Time to peak concentration Tmax ([3]; PO 10 mg/kg): 30 min; Cmax ([3]; PO 10 mg/kg): 4.39 µM
CNC(=O)c1nnc(NC(=O)C2CC2)cc1Nc1cccc(-c2ccc(P(=O)(C3CC3)C3CC3)cn2)c1OC [WX-021]	8.5	–	–	–	–	–	–	–	–	0.9	11.9	174	9.89	20.7	52	11.3	18	–	–
CNC(=O)c1nnc(NC(=O)C2CC2)cc1Nc1cccc(-c2ncc(S(=N)(=O)C(C)C)cn2)c1OC (single isomer, unassigned) [WX-011A]	14.1	0.8	6.908	252	9.92	26.715	51	18	16.8	–	–	–	–	–	–	–	–	11.2	–
